Results on 23 compounds are retold here after US20240208956A1, “1,3,4-OXADIAZOLE THIOCARBONYL COMPOUNDS AS HISTONE DEACETYLASE 6 INHIBITOR, AND PHARMACEUTICAL COMPOSITION COMPRISING THE SAME” (CHONG KUN DANG PHARMACEUTICAL CORP., priority 2021, published 2024).

In one test the target is HDAC1 (Homo sapiens (Human), UniProt Q13547). Kind of test: HDAC enzyme activity inhibition (in vitro), HDAC1 Fluorimetric Drug Discovery Assay Kit. It counts as biochemical. The following applies: samples at 100, 1000 and 10000 nM; 37° C. 60 minutes; fluorescence Ex 390 nm, Em 460 nm. Here is the method: Experimental Example 1. Confirmation of HDAC Enzyme Activity Inhibition (In Vitro)
Chain of HDAC1 (Q13547 whole entry): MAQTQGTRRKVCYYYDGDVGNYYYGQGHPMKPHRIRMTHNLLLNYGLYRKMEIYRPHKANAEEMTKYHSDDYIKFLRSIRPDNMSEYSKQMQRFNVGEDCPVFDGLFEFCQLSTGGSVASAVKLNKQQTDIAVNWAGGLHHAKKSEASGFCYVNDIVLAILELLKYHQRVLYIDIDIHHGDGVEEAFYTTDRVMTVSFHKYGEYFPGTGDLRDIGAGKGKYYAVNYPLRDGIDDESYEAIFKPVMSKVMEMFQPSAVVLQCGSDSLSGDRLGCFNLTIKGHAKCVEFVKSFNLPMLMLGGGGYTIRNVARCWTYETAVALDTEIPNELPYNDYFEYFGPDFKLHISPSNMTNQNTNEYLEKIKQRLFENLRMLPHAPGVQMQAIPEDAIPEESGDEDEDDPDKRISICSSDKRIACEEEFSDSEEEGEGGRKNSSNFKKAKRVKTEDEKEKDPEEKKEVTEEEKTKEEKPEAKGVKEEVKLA
(§1) An HDAC enzyme inhibitory capacity of test material was measured by using HDAC1 Fluorimetric Drug Discovery Assay Kit (Enzolifesciences: BML-AK511) and HDAC6 human recombinant (Calbiochem: 382180). For a HDAC1 assay, samples were treated at a concentration of 100 nM, 1000 nM and 10000 nM. For an HDAC6 assay, samples were treated at a concentration of 0.1 nM, 1 nM, 10 nM, 100 nM and 1000 nM. After the sample treatment, a reaction was continued at 37° C. for 60 minutes, treated with a developer, and subjected to reaction at 37° C. for 30 minutes, after which fluorescence intensity (Ex 390 nm, Em 460 nm) was measured by using FlexStation3 (Molecular device). For final result values, each […] value was calculated with GraphPad Prism 4.0 program.

For the next test, the target named is HDAC6 human recombinant (Homo sapiens (Human), UniProt Q9UBN7). Description: HDAC enzyme activity inhibition (in vitro), HDAC6 fluorimetric assay. Format: biochemical. The following applies: samples at 0.1-1000 nM; 37° C. 60 minutes; fluorescence Ex 390 nm, Em 460 nm. As for the experimental part: Confirmation of HDAC Enzyme Activity Inhibition (In Vitro)
Chain of HDAC6 human recombinant (Q9UBN7 whole entry): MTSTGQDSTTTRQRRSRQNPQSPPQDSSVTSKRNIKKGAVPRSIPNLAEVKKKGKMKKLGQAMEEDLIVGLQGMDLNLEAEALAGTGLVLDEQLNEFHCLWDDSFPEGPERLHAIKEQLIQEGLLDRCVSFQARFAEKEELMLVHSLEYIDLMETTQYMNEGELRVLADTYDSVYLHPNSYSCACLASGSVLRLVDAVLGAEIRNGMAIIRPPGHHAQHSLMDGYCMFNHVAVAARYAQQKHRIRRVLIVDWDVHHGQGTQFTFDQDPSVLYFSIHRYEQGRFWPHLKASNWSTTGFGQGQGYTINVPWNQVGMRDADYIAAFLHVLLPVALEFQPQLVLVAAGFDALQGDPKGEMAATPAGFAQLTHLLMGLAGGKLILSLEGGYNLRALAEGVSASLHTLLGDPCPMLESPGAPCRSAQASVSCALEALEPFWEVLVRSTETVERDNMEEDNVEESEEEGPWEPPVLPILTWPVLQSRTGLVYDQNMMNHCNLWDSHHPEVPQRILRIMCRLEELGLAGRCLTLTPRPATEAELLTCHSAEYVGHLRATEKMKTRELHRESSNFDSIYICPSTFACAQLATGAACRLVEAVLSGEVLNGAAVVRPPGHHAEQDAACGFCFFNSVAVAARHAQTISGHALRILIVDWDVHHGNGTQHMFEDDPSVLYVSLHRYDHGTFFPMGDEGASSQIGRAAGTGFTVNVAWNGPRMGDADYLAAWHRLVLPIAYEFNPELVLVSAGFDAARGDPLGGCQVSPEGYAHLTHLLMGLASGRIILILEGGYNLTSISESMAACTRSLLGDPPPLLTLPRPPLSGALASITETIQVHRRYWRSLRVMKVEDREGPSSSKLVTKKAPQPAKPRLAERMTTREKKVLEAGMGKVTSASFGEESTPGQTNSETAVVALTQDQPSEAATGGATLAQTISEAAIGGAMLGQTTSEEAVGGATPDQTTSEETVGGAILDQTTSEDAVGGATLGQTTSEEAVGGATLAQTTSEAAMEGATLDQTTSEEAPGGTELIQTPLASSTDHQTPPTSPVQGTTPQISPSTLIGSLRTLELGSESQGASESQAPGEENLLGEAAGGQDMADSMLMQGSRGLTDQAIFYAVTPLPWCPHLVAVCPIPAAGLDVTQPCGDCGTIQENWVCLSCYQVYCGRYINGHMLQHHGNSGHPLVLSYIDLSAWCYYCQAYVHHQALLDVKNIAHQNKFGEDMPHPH
as §1

What is called IC50 is the concentration at which inhibition is half-maximal. With `Fc1cccc(N(Cc2ccc(-c3nnc(C(F)F)o3)cc2)C(=S)N2CC3(C2)CN(C2COC2)C3)c1` [Compound 15, N-(4-(5-(difluoromethyl)-1,3,4-oxadiazol-2-yl)benzyl)-N-(3-fluorophenyl)-6-(oxetan-3-yl)-2,6-diazaspiro[3.3]heptan-2-carbothioamide], the IC50 was more than 10000 nM against HDAC1 and 54 nM on HDAC6 human recombinant.

Turning to `CC(C)N1C[C@@H]2C[C@H]1CN2C(=S)N(Cc1ccc(-c2nnc(C(F)F)o2)cc1F)c1ccc(F)cc1` [Compound 40, (1S,4S)—N-(4-(5-(difluoromethyl)-1,3,4-oxadiazol-2-yl)-2-fluorobenzyl)-N-(4-fluorophenyl)-5-isopropyl-2,5-diazabicyclo[2.2.1]heptan-2-carbothioamide], the half-inhibitory concentration (IC50) against HDAC1 is more than 10000 nM; on HDAC6 human recombinant, 55 nM.

Consider `CC(C)N1CC2(CN(C(=S)N(Cc3ccc(-c4nnc(C(F)F)o4)cc3F)c3ccc(F)c(Cl)c3)C2)C1` [Compound 28, N-(3-chloro-4-fluorophenyl)-N-(4-(5-(difluoromethyl)-1,3,4-oxadiazol-2-yl)-2-fluorobenzyl)-6-isopropyl-2,6-diazaspiro[3.3]heptan-2-carbothioamide], for which the IC50 against HDAC1 is more than 10000 nM; on HDAC6 human recombinant it was 77 nM.

Take `Fc1cc(-c2nnc(C(F)F)o2)ccc1CN(C(=S)N1CC2(C1)CN(C1COC1)C2)c1ccc(Cl)c(Cl)c1` [Compound 24, N-(3,4-dichlorophenyl)-N-(4-(5-(difluoromethyl)-1,3,4-oxadiazol-2-yl)-2-fluorobenzyl)-6-(oxetan-3-yl)-2,6-diazaspiro[3.3]heptan-2-carbothioamide]: the values for the 50% inhibitory concentration (IC50) on HDAC1 and on HDAC6 human recombinant were more than 10000 nM and 83 nM, respectively.

Regarding `Fc1ccc(N(Cc2ccc(-c3nnc(C(F)F)o3)cc2F)C(=S)N2CC3(C2)CN(C2COC2)C3)cc1` [Compound 19, N-(4-(5-(difluoromethyl)-1,3,4-oxadiazol-2-yl)-2-fluorobenzyl)-N-(4-fluorophenyl)-6-(oxetan-3-yl)-2,6-diazaspiro[3.3]heptan-2-carbothioamide], the figures for the half-inhibitory concentration (IC50) on HDAC1 and on HDAC6 human recombinant were more than 10000 nM and 54 nM, respectively.

For `CN1C[C@@H]2C[C@H]1CN2C(=S)N(Cc1ccc(-c2nnc(C(F)F)o2)cc1F)c1ccc(F)cc1` [Compound 39, (1S,4S)—N-(4-(5-(difluoromethyl)-1,3,4-oxadiazol-2-yl)-2-fluorobenzyl)-N-(4-fluorophenyl)-5-methyl-2,5-diazabicyclo[2.2.1]heptan-2-carbothioamide], the IC50 at HDAC1 was more than 10000 nM; at HDAC6 human recombinant it was 30 nM.

Turning to `CC(=O)N1CC2(C1)CN(C(=S)N(Cc1ccc(-c3nnc(C(F)F)o3)cc1F)c1ccc(F)c(F)c1)C2` [Compound 33, 6-acetyl-N-(4-(5-(difluoromethyl)-1,3,4-oxadiazol-2-yl)-2-fluorobenzyl)-N-(3,4-difluorophenyl)-2,6-diazaspiro[3.3]heptan-2-carbothioamide], the results for the IC50 at HDAC1 and on HDAC6 human recombinant were more than 10000 nM and 35 nM, respectively.

For the compound `CN1CC2(CCN(C(=S)N(Cc3ccc(-c4nnc(C(F)F)o4)cc3F)c3ccc(F)c(F)c3)CC2)C1` [Compound 44, N-(4-(5-(difluoromethyl)-1,3,4-oxadiazol-2-yl)-2-fluorobenzyl)-N-(3,4-difluorophenyl)-2-methyl-2,7-diazaspiro[3.5]nonan-7-carbothioamide], the 50% inhibitory concentration (IC50) on HDAC1 is more than 10000 nM; on HDAC6 human recombinant it was 80 nM.

`CN1CC2(C1)CN(C(=S)N(Cc1ccc(-c3nnc(C(F)F)o3)cc1F)c1cccc(F)c1)C2` [Compound 36, N-(4-(5-(difluoromethyl)-1,3,4-oxadiazol-2-yl)-2-fluorobenzyl)-N-(3-fluorophenyl)-6-methyl-2,6-diazaspiro[3.3]heptan-2-carbothioamide]: the IC50 was more than 10000 nM against HDAC1 and 43 nM on HDAC6 human recombinant.

Turning to `CC(C)N1CC2(CN(C(=S)N(Cc3ccc(-c4nnc(C(F)F)o4)cc3)c3ccc(F)cc3)C2)C1` [Compound 21, N-(4-(5-(difluoromethyl)-1,3,4-oxadiazol-2-yl)benzyl)-N-(4-fluorophenyl)-6-isopropyl-2,6-diazaspiro[3.3]heptan-2-carbothioamide], the figures for the IC50 at HDAC1 and at HDAC6 human recombinant were more than 10000 nM and 70 nM, respectively.

For the compound `Fc1ccc(N(Cc2ccc(-c3nnc(C(F)F)o3)cc2F)C(=S)N2C[C@@H]3C[C@H]2CN3C2COC2)cc1F` [Compound 43, (1S,4S)—N-(4-(5-(difluoromethyl)-1,3,4-oxadiazol-2-yl)-2-fluorobenzyl)-N-(3,4-difluorophenyl)-5-(oxetan-3-yl)-2,5-diazabicyclo[2.2.1]heptan-2-carbothioamide], the IC50 against HDAC1 is more than 10000 nM; on HDAC6 human recombinant, 77 nM.

Turning to `CN1CCC2(CC1)CC(C(=S)N(Cc1ccc(-c3nnc(C(F)F)o3)cc1F)c1ccccc1)C2` [Compound 8, N-(4-(5-(difluoromethyl)-1,3,4-oxadiazol-2-yl)-2-fluorobenzyl)-7-methyl-N-phenyl-7-azaspiro[3.5]nonan-2-carbothioamide], the results for the IC50 at HDAC1 and at HDAC6 human recombinant were more than 10000 nM and 75 nM, respectively.

As for `CC(C)N1CC2(CN(C(=S)N(Cc3ccc(-c4nnc(C(F)F)o4)cc3F)c3cccc(F)c3)C2)C1` [Compound 37, N-(4-(5-(difluoromethyl)-1,3,4-oxadiazol-2-yl)-2-fluorobenzyl)-N-(3-fluorophenyl)-6-isopropyl-2,6-diazaspiro[3.3]heptan-2-carbothioamide], the IC50 against HDAC1 is more than 10000 nM; at HDAC6 human recombinant, 67 nM.

In the case of `CN1CC2(C1)CN(C(=S)N(Cc1ccc(-c3nnc(C(F)F)o3)cc1F)c1ccc(F)cc1)C2` [Compound 17, N-(4-(5-(difluoromethyl)-1,3,4-oxadiazol-2-yl)-2-fluorobenzyl)-N-(4-fluorophenyl)-6-methyl-2,6-diazaspiro[3.3]heptan-2-carbothioamide], the IC50 at HDAC1 was more than 10000 nM; at HDAC6 human recombinant, 41 nM.

`CN1CC2(C1)CN(C(=S)N(Cc1ccc(-c3nnc(C(F)F)o3)cc1F)c1ccc(Cl)c(Cl)c1)C2` [Compound 23, N-(3,4-dichlorophenyl)-N-(4-(5-(difluoromethyl)-1,3,4-oxadiazol-2-yl)-2-fluorobenzyl)-6-methyl-2,6-diazaspiro[3.3]heptan-2-carbothioamide]: the concentration for half-maximal inhibition (IC50) was more than 10000 nM against HDAC1 and 62 nM at HDAC6 human recombinant.

Consider `CN1CC2(C1)CN(C(=S)N(Cc1ccc(-c3nnc(C(F)F)o3)cc1F)c1ccc(F)cc1F)C2` [Compound 12, N-(4-(5-(difluoromethyl)-1,3,4-oxadiazol-2-yl)-2-fluorobenzyl)-N-(2,4-difluorophenyl)-6-methyl-2,6-diazaspiro[3.3]heptan-2-carbothioamide], for which the half-maximal inhibitory concentration (IC50) was more than 10000 nM at HDAC1 and 135 nM on HDAC6 human recombinant.

With `CN1CC2(C1)CN(C(=S)N(Cc1ccc(-c3nnc(C(F)F)o3)cc1)c1ccc(F)cc1)C2` [Compound 20, N-(4-(5-(difluoromethyl)-1,3,4-oxadiazol-2-yl)benzyl)-N-(4-fluorophenyl)-6-methyl-2,6-diazaspiro[3.3]heptan-2-carbothioamide], the IC50 against HDAC1 was more than 10000 nM; on HDAC6 human recombinant it was 60 nM.

As to `Fc1cc(-c2nnc(C(F)F)o2)ccc1CN(C(=S)c1ccncc1)c1ccccc1` [Compound 9, N-(4-(5-(difluoromethyl)-1,3,4-oxadiazol-2-yl)-2-fluorobenzyl)-N-phenylpyridin-4-carbothioamide], the IC50 is more than 10000 nM against HDAC1 and 138 nM at HDAC6 human recombinant.

With `FC(F)c1nnc(-c2ccc(CN(C(=S)N3CCN(C4COC4)CC3)c3ccccc3)cc2)o1` [Compound 5, N-(4-(5-(difluoromethyl)-1,3,4-oxadiazol-2-yl)benzyl)-4-(oxetan-3-yl)-N-phenylpiperazin-1-carbothioamide], the concentration for half-maximal inhibition (IC50) was more than 10000 nM against HDAC1 and 37 nM on HDAC6 human recombinant.

With `Fc1ccc(N(Cc2ccc(-c3nnc(C(F)F)o3)cc2)C(=S)N2CC3(C2)CN(C2COC2)C3)cc1` [Compound 22, N-(4-(5-(difluoromethyl)-1,3,4-oxadiazol-2-yl)benzyl)-N-(4-fluorophenyl)-6-(oxetan-3-yl)-2,6-diazaspiro[3.3]heptan-2-carbothioamide], the values for the 50% inhibitory concentration (IC50) at HDAC1 and on HDAC6 human recombinant were more than 10000 nM and 83 nM, respectively.

Regarding `CN1CC2(C1)CN(C(=S)N(Cc1ccc(-c3nnc(C(F)F)o3)cc1F)c1ccccc1)C2` [Compound 10, N-(4-(5-(difluoromethyl)-1,3,4-oxadiazol-2-yl)-2-fluorobenzyl)-6-methyl-N-phenyl-2,6-diazaspiro[3.3]heptan-2-carbothioamide], the 50% inhibitory concentration (IC50) is more than 10000 nM against HDAC1 and 45 nM on HDAC6 human recombinant.

Take `CN1CCC2(CC1)CN(C(=S)N(Cc1ccc(-c3nnc(C(F)F)o3)cc1F)c1ccc(F)c(F)c1)C2` [Compound 46, N-(4-(5-(difluoromethyl)-1,3,4-oxadiazol-2-yl)-2-fluorobenzyl)-N-(3,4-difluorophenyl)-7-methyl-2,7-diazaspiro[3.5]nonan-2-carbothioamide]: the IC50 at HDAC1 is more than 10000 nM; at HDAC6 human recombinant, 28 nM.

Consider `Fc1ccc(N(Cc2ccc(-c3nnc(C(F)F)o3)cc2F)C(=S)N2C[C@@H]3C[C@H]2CN3C2COC2)cc1` [Compound 41, (1S,4S)—N-(4-(5-(difluoromethyl)-1,3,4-oxadiazol-2-yl)-2-fluorobenzyl)-N-(4-fluorophenyl)-5-(oxetan-3-yl)-2,5-diazabicyclo[2.2.1]heptan-2-carbothioamide], for which the values for the IC50 against HDAC1 and on HDAC6 human recombinant were more than 10000 nM and 73 nM, respectively.
